Target: unphosphorylated-BTK kinase domain (UP-BTK), GST-tagged human BTK (389-659aa) (Homo sapiens (Human), UniProt Q06187)
Test: BTK Kinase Lanthascreen Binding Assay
Details: Lanthascreen binding, 60 minutes incubation; pIC50 = negative log of the IC50 in molar
Method: BTK Kinase Lanthascreen Binding Assay:
A BTK kinase lanthascreen binding assay monitors compound binding to unphosphorylated-BTK kinase domain (UP-BTK), by competing with a fluorescent labeled tracer. […] Data were analyzed using Xlfit™ version 5.3 from ID Business Solutions (Guildford), Microsoft Excel add-in. pIC50 refers to the negative log of the IC50 in molar.

Sequence of unphosphorylated-BTK kinase domain (UP-BTK), GST-tagged human BTK (389-659aa) (Q06187 389-659): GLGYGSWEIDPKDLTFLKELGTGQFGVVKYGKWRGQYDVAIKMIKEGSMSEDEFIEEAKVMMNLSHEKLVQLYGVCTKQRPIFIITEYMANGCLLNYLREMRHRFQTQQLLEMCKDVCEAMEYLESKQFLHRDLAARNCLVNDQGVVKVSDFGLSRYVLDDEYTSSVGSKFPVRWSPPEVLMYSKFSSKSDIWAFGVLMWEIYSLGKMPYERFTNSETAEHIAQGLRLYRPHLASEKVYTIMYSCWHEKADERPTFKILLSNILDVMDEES

| Compound | BTK_I_binding pIC50 |
| --- | --- |
| CC(=O)N[C@H]1CCC[C@H]1NC(=O)c1sc2nccc3c2c1NC(=O)N3c1ccc(Oc2ccccc2)nc1C (single isomer, unassigned) [Example 345, N-((1R,2S)-2-Acetamidocyclopentyl)-5-(*S)-(2-methyl-6-phenoxypyridin-3-yl)-4-oxo-4,5-dihydro-3H-1-thia-3,5,8-triazaacenaphthylene-2-carboxamide] | 6.09 |
| CCC(=O)N[C@H]1CCC[C@H]1NC(=O)c1sc2nccc3c2c1NC(=O)N3c1ccc(Oc2ccccc2)nc1C (single isomer, unassigned) [Example 346, 5-(*S)-(2-Methyl-6-phenoxypyridin-3-yl)-4-oxo-N-((1R,2S)-2-propionamidocyclopentyl)-4,5-dihydro-3H-1-thia-3,5,8-triazaacenaphthylene-2-carboxamide] | 6.07 |
| C=CC(=O)N[C@H]1CCC[C@H]1NC(=O)c1sc2nccc3c2c1NC(=O)N3c1ccc(OC2CCOCC2)cc1C (single isomer, unassigned) [Example 347, N-((1R,2S)-2-Acrylamidocyclopentyl)-5-(*R)-(2-methyl-4-((tetrahydro-2H-pyran-4-yl)oxy)phenyl)-4-oxo-4,5-dihydro-3H-1-thia-3,5,8-triazaacenaphthylene-2-carboxamide] | 6.06 |
| Cc1cc(Oc2ccccc2)ncc1N1C(=O)Nc2c(C(=O)N[C@@H]3CC[C@H](N)C3)sc3nccc1c23 (single isomer, unassigned) [Example 355, N-((1R,3S)-3-Aminocyclopentyl)-5-(*S)-(4-methyl-6-phenoxypyridin-3-yl)-4-oxo-4,5-dihydro-3H-1-thia-3,5,8-triazaacenaphthylene-2-carboxamide] | 6.61 |
| CC(=O)N[C@@H]1CCC[C@H]1NC(=O)c1sc2nccc3c2c1NC(=O)N3c1ccc(Oc2ccccc2)nc1C (single isomer, unassigned) [Example 358, N-((1R,2R)-2-Acetamidocyclopentyl)-5-(*S)-(2-methyl-6-phenoxypyridin-3-yl)-4-oxo-4,5-dihydro-3H-1-thia-3,5,8-triazaacenaphthylene-2-carboxamide] | 6.44 |
| C=CC(=O)N[C@H]1CC[C@@H](NC(=O)c2sc3nccc4c3c2NC(=O)N4c2cnc(Oc3ccccc3)cc2C)C1 (single isomer, unassigned) [Example 359, N-((1R,3S)-3-Acrylamidocyclopentyl)-5-(*S)-(4-methyl-6-phenoxypyridin-3-yl)-4-oxo-4,5-dihydro-3H-1-thia-3,5,8-triazaacenaphthylene-2-carboxamide] | 8.05 |
| CC(=O)N[C@H]1CCC[C@@H](NC(=O)c2sc3nccc4c3c2NC(=O)N4c2cnc(Oc3ccccc3)cc2C)C1 (single isomer, unassigned) [Example 360, N-((1R,3S)-3-Acetamidocyclohexyl)-5-(*S)-(4-methyl-6-phenoxypyridin-3-yl)-4-oxo-4,5-dihydro-3H-1-thia-3,5,8-triazaacenaphthylene-2-carboxamide] | 6.26 |
| CCC(=O)N[C@H]1CC[C@@H](NC(=O)c2sc3nccc4c3c2NC(=O)N4c2cnc(Oc3ccccc3)cc2C)C1 (single isomer, unassigned) [Example 361, 5-(*S)-(4Methyl-6-phenoxypyridin-3-yl)-4-oxo-N-((1R,3S)-3-propionamidocyclopentyl)-4,5-dihydro-3H-1-thia-3,5,8-triazaacenaphthylene-2-carboxamide] | 7.94 |
| C=CC(=O)N[C@H]1CCC[C@@H](NC(=O)c2sc3nccc4c3c2NC(=O)N4c2cnc(Oc3ccccc3)cc2C)C1 (single isomer, unassigned) [Example 363, N-((1R,3S)-3-Acrylamidocyclohexyl)-5-(*S)-(4-methyl-6-phenoxypyridin-3-yl)-4-oxo-4,5-dihydro-3H-1-thia-3,5,8-triazaacenaphthylene-2-carboxamide] | 6.31 |
| C=CC(=O)N[C@H]1CC[C@@H](NC(=O)c2sc3nccc4c3c2NC(=O)N4c2cnc(OCC(C)C)cc2C)C1 (single isomer, unassigned) [Example 365] | 7.93 |
| C=CC(=O)N[C@H]1CC[C@@H](NC(=O)c2sc3nccc4c3c2NC(=O)N4c2cnc(OC3CCCC3)cc2C)C1 (single isomer, unassigned) [Example 366, N-((1R,3S)-3-Acrylamidocyclopentyl)-5-(*S)-(6-(cyclopentyloxy)-4-methylpyridin-3-yl)-4-oxo-4,5-dihydro-3H-1-thia-3,5,8-triazaacenaphthylene-2-carboxamide] | 8.07 |
| C=CC(=O)N[C@H]1CCC[C@H]1NC(=O)c1sc2nccc3c2c1NC(=O)N3c1cnc(OC2CCCC2)cc1C (single isomer, unassigned) [Example 371, N-((1R,2S)-2-Acrylamidocyclopentyl)-5-(*S)-(6-(cyclopentyloxy)-4-methylpyridin-3-yl)-4-oxo-4,5-dihydro-3H-1-thia-3,5,8-triazaacenaphthylene-2-carboxamide] | 8.23 |
| C=CC(=O)N[C@H]1CCC[C@H]1NC(=O)c1sc2nccc3c2c1NC(=O)N3c1cnc(OCC(C)C)cc1C (single isomer, unassigned) [Example 373, N-((1R,2S)-2-Acrylamidocyclopentyl)-5-(*S)-(6-isobutoxy-4-methylpyridin-3-yl)-4-oxo-4,5-dihydro-3H-1-thia-3,5,8-triazaacenaphthylene-2-carboxamide] | 8.25 |
| Cc1cc(OC2CCCC2)ncc1N1C(=O)Nc2c(C(=O)N[C@@H]3CCC[C@@H]3N)sc3nccc1c23 (single isomer, unassigned) [Example 374, N-((1R,2S)-2-Aminocyclopentyl)-5-(*S)-(6-(cyclopentyloxy)-4-methylpyridin-3-yl)-4-oxo-4,5-dihydro-3H-1-thia-3,5,8-triazaacenaphthylene-2-carboxamide] | 6.82 |
| Cc1cc(Oc2ccccc2)ncc1N1C(=O)Nc2c(C(=O)N[C@@H]3CCCC[C@@H]3N)sc3nccc1c23 (single isomer, unassigned) [Example 375, N-((1R,2S)-2-Aminocyclohexyl)-5-(*S)-(4-methyl-6-phenoxypyridin-3-yl)-4-oxo-4,5-dihydro-3H-1-thia-3,5,8-triazaacenaphthylene-2-carboxamide] | 6.92 |
| CC(=O)N[C@H]1CCCC[C@H]1NC(=O)c1sc2nccc3c2c1NC(=O)N3c1cnc(Oc2ccccc2)cc1C (single isomer, unassigned) [Example 377, N-((1R,2S)-2-Acetamidocyclohexyl)-5-(*S)-(4-methyl-6-phenoxypyridin-3-yl)-4-oxo-4,5-dihydro-3H-1-thia-3,5,8-triazaacenaphthylene-2-carboxamide] | 6.83 |
| CC(=O)N[C@H]1CCC[C@H]1NC(=O)c1sc2nccc3c2c1NC(=O)N3c1cnc(Oc2ccccc2)cc1C (single isomer, unassigned) [Example 378, N-((1R,2S)-2-Acetamidocyclopentyl)-5-(*S)-(4-methyl-6-phenoxypyridin-3-yl)-4-oxo-4,5-dihydro-3H-1-thia-3,5,8-triazaacenaphthylene-2-carboxamide] | 6.39 |
| CCC(=O)N[C@H]1CCCC[C@H]1NC(=O)c1sc2nccc3c2c1NC(=O)N3c1ccc(Oc2ccccc2)cc1C (single isomer, unassigned) [Example 380, 5-(*S)-(2-Methyl-4-phenoxyphenyl)-4-oxo-N-((1R,2S)-2-propionamidocyclohexyl)-4,5-dihydro-3H-1-thia-3,5,8-triazaacenaphthylene-2-carboxamide] | 7.20 |

Same assay, conditions: read-out: BTK_I_binding pIC50 (converted)

| Compound | IC50 [nM] |
| --- | --- |
| Cc1nc(Oc2ccccc2)ccc1N1C(=O)Nc2c(C(=O)N[C@@H]3CCCC[C@H]3N)sc3nccc1c23 (single isomer, unassigned) [Example 350, N-((1R,2R)-2-Aminocyclohexyl)-5-(*S)-(2-methyl-6-phenoxypyridin-3-yl)-4-oxo-4,5-dihydro-3H-1-thia-3,5,8-triazaacenaphthylene-2-carboxamide] | > 1000 |
| C=CC(=O)N[C@H]1CCCC[C@H]1NC(=O)c1sc2nccc3c2c1NC(=O)N3c1cnc(OCC(C)C)cc1C (single isomer, unassigned) [Example 352, N-((1R,2S)-2-Acrylamidocyclohexyl)-5-(*R)-(6-isobutoxy-4-methylpyridin-3-yl)-4-oxo-4,5-dihydro-3H-1-thia-3,5,8-triazaacenaphthylene-2-carboxamide] | > 1000 |
| CCC(=O)N[C@@H]1CCC[C@H]1NC(=O)c1sc2nccc3c2c1NC(=O)N3c1ccc(Oc2ccccc2)nc1C (single isomer, unassigned) [Example 353, 5-(*S)-(2-Methyl-6-phenoxypyridin-3-yl)-4-oxo-N-((1R,2R)-2-propionamidocyclopentyl)-4,5-dihydro-3H-1-thia-3,5,8-triazaacenaphthylene-2-carboxamide] | > 1000 |
| Cc1cc(Oc2ccccc2)ncc1N1C(=O)Nc2c(C(=O)N[C@@H]3CCC[C@H](N)C3)sc3nccc1c23 (single isomer, unassigned) [Example 356, N-((1R,3S)-3-Aminocyclohexyl)-5-(*S)-(4-methyl-6-phenoxypyridin-3-yl)-4-oxo-4,5-dihydro-3H-1-thia-3,5,8-triazaacenaphthylene-2-carboxamide] | > 1000 |
| CC(=O)N[C@@H]1CCCC[C@H]1NC(=O)c1sc2nccc3c2c1NC(=O)N3c1ccc(Oc2ccccc2)nc1C (single isomer, unassigned) [Example 362, N-((1R,2R)-2-Acetamidocyclohexyl)-5-(*S)-(2-methyl-6-phenoxypyridin-3-yl)-4-oxo-4,5-dihydro-3H-1-thia-3,5,8-triazaacenaphthylene-2-carboxamide] | > 1000 |
| CCC(=O)N[C@H]1CCCC[C@H]1NC(=O)c1sc2nccc3c2c1NC(=O)N3c1ccc(Oc2ccccc2)nc1C (single isomer, unassigned) [Example 364, 5-(*S)-(2-Methyl-6-phenoxypyridin-3-yl)-4-oxo-N-((1R,2R)-2-propionamidocyclohexyl)-4,5-dihydro-3H-1-thia-3,5,8-triazaacenaphthylene-2-carboxamide] | > 1000 |

— US10934310B2, “Inhibitors of Bruton's tyrosine kinase and method of their use” (JANSSEN PHARMACEUTICA NV, priority 2015, dated 2021)
